In general, pEC50 refers to the negative decadic logarithm of the EC50, by convention in mol/L.

pEC50: −log10 of the molar value.

This note sets out measurements from patent US10434112B2, “Use of agonists of formyl peptide receptor 2 for treating dermatological diseases” (Allergan, Inc., priority 2013, dated 2019).

For one assay, the target named is human FPR2 receptor (Homo sapiens (Human), UniProt P25090). In words: FLIPR Ca+2 response in HEK-Gα16 cells stably expressing the human FPR2 receptor. Also on record: FPR2 (% eff): unit not given here. The following applies: Table 4. Format: cell-based. The protocol: FLIPR: HEK-Gα16 cells stably expressing the human FPR2 receptor was utilized. Cells were plated into 384-well poly-D-lysine coated plates at a density of 18,000 cells per well one day prior to use. The growth media was DMEM medium supplemented with 10% fetal bovine serum (FBS), 1% antibiotic-antimycotic, 50 μg/ml hygromycin, and 400 μg/ml geneticin. On the day of the experiment, the cells were washed twice with Hank's Balanced Salt Solution supplemented with 20 mM HEPES (HBSS/hepes buffer). The cells were then dye loaded with 2 μM Fluo-4 diluted in the HBSS/Hepes buffer and incubated at 37° C. for 40 minutes. Extracellular dye was removed by washing the cell plates four times prior to placing the plates in the FLIPR (Fluorometric Imaging Plate Reader, Molecular Devices). Ligands were diluted in HBSS/Hepes buffer and prepared in 384-well microplates. Data for Ca^+2 responses were obtained in relative fluorescence units.
human FPR2 receptor, sequence (P25090 whole entry): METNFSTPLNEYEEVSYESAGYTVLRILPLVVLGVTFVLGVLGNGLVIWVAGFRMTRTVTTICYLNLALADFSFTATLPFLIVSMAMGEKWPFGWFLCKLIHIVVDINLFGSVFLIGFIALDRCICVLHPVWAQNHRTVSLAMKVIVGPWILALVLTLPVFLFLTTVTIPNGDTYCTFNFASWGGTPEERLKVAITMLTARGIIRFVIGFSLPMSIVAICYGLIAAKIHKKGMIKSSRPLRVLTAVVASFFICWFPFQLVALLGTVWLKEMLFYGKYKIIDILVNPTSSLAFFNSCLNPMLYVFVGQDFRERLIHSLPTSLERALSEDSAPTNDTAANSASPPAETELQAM
Turning to `O=C(Nc1ccc(Br)cc1)[C@@H]1C2CCC([C@@H]1C(=O)O)C21CC1` (single isomer, unassigned) [Compound 44], the negative-log EC50 (pEC50) was > 9.00.

The assay is the same for the next values; noted with them: Table 4; value in brackets, given mostly as fraction.
On to `O=C(O)CNC(=O)[C@H](Cc1ccccc1)NC(=O)Nc1ccc(Br)cc1` [Compound 55, {[(2S)-2-{[(4-bromophenyl)carbamoyl]amino}-3-phenylpropanoyl]amino} acetic acid], for which the “FPR2 (% eff)” value amounted to 0.99.
On the same count and under the same terms, under `CCC1(CCc2ccccc2)NC(=O)N(NC(=O)Nc2ccc(Br)cc2F)C1=O` (stereo not drawn) [Compound 69, 1-(4-bromo-2-fluorophenyl)-3-[4-ethyl-2,5-dioxo-4-(2-phenylethyl)imidazolidin-1-yl]urea] stands 0.91; under `O=C(Nc1ccc(Br)cc1)[C@@H]1C2CCC([C@@H]1C(=O)O)C21CC1` (single isomer, unassigned) [Compound 44], 0.98.
Turning to `CCOC(=O)C1CCC2(CC1)NC(=O)N(NC(=O)Nc1ccc(Br)cc1)C2=O` (stereo not drawn) [Compound 153, ethyl 3-{[(4-bromophenyl)carbamoyl]amino}-2,4-dioxo-1,3-diazaspiro[4.5]decane-8-carboxylate], the “FPR2 (% eff)” value turned out to be 0.99.
Same read-out and setting: to `NC(=O)C1C(C(=O)Nc2ccc(Br)cc2)C2CCC1C21CC1` (stereo not drawn) [Compound 30, N-(4-bromophenyl)spiro[bicyclo[2.2.1]heptane-7,1′-cyclopropane]-2,3-dicarboxamide] belongs 0.96; to `CCC[C@H](NC(=O)Nc1ccc(Br)cc1)C(=O)NCC(N)=O` [Compound 79, (2S)-N-(2-amino-2-oxoethyl)-2-{[(4-bromophenyl)carbamoyl]amino}pentanamide], 0.97.
Same read-out and setting: to `NC(=O)C1C(C(=O)Nc2ccc(I)cc2)C2C=CC1C21CC1` (stereo not drawn) [Compound 39, N-(4-iodophenyl)spiro[bicyclo[2.2.1]heptane-7,1′-cyclopropane]-5-ene-2,3-dicarboxamide] belongs 0.90; to `CC(C)C[C@H](NC(=O)Nc1ccc(Br)cc1)C(=O)NCc1cc(O)no1` [Compound 116, (2S)-2-{[(4-bromophenyl)carbamoyl]amino}-N-[(3-hydroxy-1,2-oxazol-5-yl)methyl]-4-methylpentanamide], 1.0; to `CC(=O)c1ccc(NC(=O)Nc2ccc3c(c2)C(=O)N(CCc2c[nH]cn2)C(c2ccc(C#N)cc2)C3)cc1` (stereo not drawn) [Compound 13, 1-(4-acetylphenyl)-3-{3-(4-cyanophenyl)-2-[2-(1H-imidazol-4-yl)ethyl]-1-oxo-1,2,3,4-tetrahydroisoquinolin-7-yl}urea], 0.80.
As for `CC1(CCc2ccc(O)c(F)c2)NC(=O)N(NC(=O)Nc2ccc(Br)cc2F)C1=O` (stereo not drawn) [Compound 98, 1-(4-bromo-2-fluorophenyl)-3-{4-[2-(3-fluoro-4-hydroxyphenyl)ethyl]-4-methyl-2,5-dioxoimidazolidin-1-yl}urea], the “FPR2 (% eff)” value was 0.91.
`CC(C)C[C@H](NC(=O)Nc1ccc(Br)cc1)C(=O)N[C@H](C(N)=O)C(C)C` [Compound 92, (2S)-N-[(2S)-1-amino-3-methyl-1-oxobutan-2-yl]-2-{[(4-bromophenyl)carbamoyl]amino}-4-methylpentanamide]: the “FPR2 (% eff)” value is listed as 1.0.
The same measure, in the same setting: to `CCNC(=O)C1C(C(=O)Nc2ccc(Br)cc2)C2CCC1C21CC1` (stereo not drawn) [Compound 47, N-(4-bromophenyl)-N′-ethylspiro[bicyclo[2.2.1]heptane-7,1′-cyclopropane]-2,3-dicarboxamide] belongs 1.0; to `Cc1ccc(CCC2(C)NC(=O)N(NC(=O)Nc3ccc(Br)cc3)C2=O)o1` (stereo not drawn) [Compound 97, 1-(4-bromophenyl)-3-{4-methyl-4-[2-(5-methylfuran-2-yl)ethyl]-2,5-dioxoimidazolidin-1-yl}urea], 0.95; to `CSc1ccc(NC(=O)Nc2ccc3c(c2)C(=O)N(CCc2c[nH]cn2)C(c2ccco2)C3)cc1` (stereo not drawn) [Compound 23, 1-{3-(furan-2-yl)-2-[2-(1H-imidazol-4-yl)ethyl]-1-oxo-1,2,3,4-tetrahydroisoquinolin-7-yl}-3-[4-(methylsulfanyl)phenyl]urea], 0.83.
